Assay [1] can be described thus: Cytotoxicity against human SGC7901 cells assessed as cell growth inhibition after 72 hrs by MTT assay. The format is functional, cell-based. The following applies: SGC-7901, 72 h. On the technique in general: Tetrazolium assays rely on reduction of a dye to a coloured formazan, in cell work by metabolically active cells.
A short description of assay [2]: Cytotoxicity against human HT1080 cells assessed as cell growth inhibition after 72 hrs by MTT assay. It is filed as functional, cell-based. The following applies: HT-1080, 72 h.
A further assay deals with KB. Nature of the assay: Cytotoxicity against human KB cells assessed as cell growth inhibition after 72 hrs by MTT assay. It is filed as functional, cell-based.
The next assay deals with Tubulin (Bos taurus) (UniProt Q6B856+Q862L2+Q862F3). The assay is described as follows: (§1) Inhibition of bovine brain tubulin polymerization.
Another assay has as its target Tubulin (Bos taurus, UniProt Q6B856+Q862L2+Q862F3). The assay is described as §1.

Some results are limits rather than exact numbers.

For `COc1ccc(C2=C(c3cc(OC)c(OC)c(OC)c3)C(=O)N(OC)C2=O)cc1`, the IC50 (in assay [1]; in assay [2]; in the assay on KB) was > 30 µM throughout.
For `COc1ccc(C2=C(c3cc(OC)c(OC)c(OC)c3)C(=O)N(O)C2=O)cc1N`, the IC50 in assay [1] is 1.3 µM; against Tubulin, 3 µM; in assay [2], 0.65 µM; in the assay with KB it was 1.1 µM. Moreover, the inhibition result at Tubulin (Bos taurus) is “Dose-dependent effect”.
On to `COc1cc(C2=C(c3ccc4ccccc4c3)C(=O)N(O)C2=O)cc(OC)c1OC`, for which the IC50 in assay [1] turned out to be 16.5 µM; in assay [2] it was 6.4 µM; in the assay on KB, 10.1 µM.
`COc1ccc(C2=C(c3cc(OC)c(OC)c(OC)c3)C(=O)N(C)C2=O)cc1`: the results for the IC50 (in assay [1]; in assay [2]; in the assay with KB) were 12.3 µM, 15.6 µM and 14.2 µM, respectively.
Take `COc1ccc(/C=C\c2cc(OC)c(OC)c(OC)c2)cc1O` [COMBRETASTATIN A4]: the IC50 came to 0.028 µM in assay [1] and 0.008 µM in assay [2].
In the case of `COc1cc(C2=C(c3ccc4ccccc4c3)C(=O)N(C)C2=O)cc(OC)c1OC`, the IC50 in assay [1] came out at 12.3 µM; in assay [2], 22.5 µM; in the assay on KB it was 16.7 µM.
As for `COc1ccc(C2=C(c3cc(OC)c(OC)c(OC)c3)C(=O)N(O)C2=O)cc1`, the figures for the IC50 (in assay [1]; in assay [2]; in the assay with KB) were 5.3 µM, 4.1 µM and 5.6 µM, respectively.
Take `COc1ccc(C2=C(c3cc(OC)c(OC)c(OC)c3)C(=O)N(OC)C2=O)cc1N`: the IC50 (in assay [1]; in assay [2]; in the assay with KB) was > 30 µM in each case.
Consider `COc1ccc(C2=C(c3cc(OC)c(OC)c(OC)c3)C(=O)N(OC)C2=O)cc1O`, for which the IC50 (in assay [1]; in assay [2]; with KB) was > 30 µM in each case.
As for `COc1ccc(C2=C(c3cc(OC)c(OC)c(OC)c3)C(=O)N(C)C2=O)cc1N`, the IC50 in assay [1] was determined as 1.5 µM; in assay [2], 0.75 µM; in the assay with KB it was 1.3 µM.
For `COc1ccc(C2=C(c3cc(OC)c(OC)c(OC)c3)C(=O)N(C)C2=O)cc1O`, the values for the IC50 (in assay [1]; in assay [2]; in the assay on KB) were 2.5 µM, 13.3 µM and 3 µM, respectively.
As for `COc1ccc(C2=C(c3cc(OC)c(OC)c(OC)c3)C(=O)OC2=O)cc1N`, the IC50 in assay [1] worked out at 1.6 µM; in assay [2], 2.4 µM; in the assay on KB it was 2.3 µM.
As to `COc1ccc(C2=C(c3cc(OC)c(OC)c(OC)c3)C(=O)N(O)C2=O)cc1O`, the IC50 in assay [1] is 4.5 µM; in assay [2], 2.4 µM; in the assay with KB, 6.7 µM.
Consider `COc1cc(C2=C(c3ccc4ccccc4c3)C(=O)OC2=O)cc(OC)c1OC`, for which the IC50 (in assay [1]; in assay [2]; in the assay on KB) was > 30 µM throughout.
`COc1ccc(C2=C(c3cc(OC)c(OC)c(OC)c3)C(=O)OC2=O)cc1`: the IC50 in assay [1] worked out at 13.2 µM; in assay [2] it was 16.5 µM; in the assay with KB, 10.8 µM.
For `COc1cc(C2=C(c3ccc4ccccc4c3)C(=O)N(OC)C2=O)cc(OC)c1OC`, the IC50 (in assay [1]; in assay [2]; in the assay with KB) was > 30 µM throughout.
`COc1ccc(C2=C(c3cc(OC)c(OC)c(OC)c3)C(=O)OC2=O)cc1O`: the IC50 in assay [1] is 27.9 µM; in assay [2], > 30 µM; in the assay on KB, > 30 µM.

One may read the IC50 as the concentration needed to halve the response being measured.

The values are drawn from ChEMBL document CHEMBL3351982, “Microwave-assisted synthesis and biological evaluation of 3,4-diaryl maleic anhydride/N-substituted maleimide derivatives as combretastatin A-4 analogues” (Bioorg Med Chem Lett, 2015).
